# Assay results published in ChEMBL document CHEMBL5370598, “[3H]UR-JG102-A Radiolabeled Cyclic Peptide with High Affinity and Excellent Selectivity for the Neuropeptide Y Y4 Receptor” (J Med Chem, 2023).
# Tests used:
# [1] = molecular target: T1, Neuropeptide Y receptor type 4 (Homo sapiens, UniProt P50391); experiment: Binding affinity to human Y4R under 140 mM sodium condition
# [2] = molecular target: T1, Neuropeptide Y receptor type 4; experiment: Binding affinity to human Y4R under sodium free condition
# [3] = molecular target: T1, Neuropeptide Y receptor type 4; experiment: Displacement of [3H]-(9S,12S,15S,19R,E)-4-amino-N-((S)-1-(((S)-1-(((S)-1-amino-3-(4-hydroxyphenyl)-1-oxopropan-2-yl)amino)-5-guanidino-1-oxopentan-2-yl)amino)-4-methyl-1-oxopentan-2-yl)-15-(3-guanidinopropyl)-12-(4-hydroxybenzyl)-2,11,14,17,20-pentaoxo-19-(4-(propanamido-2,3-t2)butanamido)-1,3,5,10,13,16,21-heptaazacyclopentacos-3-ene-9-carboxamide from human Y4R expressed in CHO cells coexpressing Gqi5-mtAEQ under hypotonic sodium free buffer condition; type: cell-based
# [4] = molecular target: T1, Neuropeptide Y receptor type 4; experiment: Displacement of [3H]-(9S,12S,15S,19R,E)-4-amino-N-((S)-1-(((S)-1-(((S)-1-amino-3-(4-hydroxyphenyl)-1-oxopropan-2-yl)amino)-5-guanidino-1-oxopentan-2-yl)amino)-4-methyl-1-oxopentan-2-yl)-15-(3-guanidinopropyl)-12-(4-hydroxybenzyl)-2,11,14,17,20-pentaoxo-19-(4-(propanamido-2,3-t2)butanamido)-1,3,5,10,13,16,21-heptaazacyclopentacos-3-ene-9-carboxamide from human Y4R expressed in CHO cells coexpressing Gqi5-mtAEQ under isotonic sodium containing buffer condition; type: cell-based
# [5] = molecular target: T1, Neuropeptide Y receptor type 4; experiment: Binding affinity to human Y4R under hypotonic sodium free condition
# [6] = molecular target: T1, Neuropeptide Y receptor type 4; experiment: Binding affinity to human Y4R expressed in CHO cells co-expressing Gqi5-mtAEQ assessed as Kon under sodium free buffer condition; type: cell-based; details: filed as agonist, tested as the 3H-labelled form
# [7] = molecular target: T1, Neuropeptide Y receptor type 4; experiment: Agonist activity at human Y4R expressed in CHO cells co-expressing Gqi5-mtAEQ by calcium2+ aequorin assay relative to control; type: functional, cell-based; details: filed as agonist
# [8] = Chemical stability in PBS buffer at pH 7.4 after 48 hrs by RP-HPLC analysis; type: physicochemical; details: pH 7.4, 48 h
# Homo sapiens [9] = species on record: Homo sapiens; experiment: Selectivity ratio of pKi for human Y1R to pKi for human Y4R
# Homo sapiens [10] = species on record: Homo sapiens; experiment: Selectivity ratio of pKi for human Y5R to pKi for human Y4R
# [11] = molecular target: T1, Neuropeptide Y receptor type 4; experiment: Binding affinity to human Y4R expressed in CHO cells co-expressing Gqi5-mtAEQ assessed as observed association rate constant preincubated for 20 mins under DPBS condition; type: cell-based; details: filed as agonist, tested as the 3H-labelled form
# [12] = molecular target: T2, Neuropeptide Y receptor type 2 (Homo sapiens, UniProt P49146); experiment: Displacement of [3H]propionyl-pNPY from human Y2R expressed in CHO cells; type: cell-based
# T2 sequence (P49146 whole entry): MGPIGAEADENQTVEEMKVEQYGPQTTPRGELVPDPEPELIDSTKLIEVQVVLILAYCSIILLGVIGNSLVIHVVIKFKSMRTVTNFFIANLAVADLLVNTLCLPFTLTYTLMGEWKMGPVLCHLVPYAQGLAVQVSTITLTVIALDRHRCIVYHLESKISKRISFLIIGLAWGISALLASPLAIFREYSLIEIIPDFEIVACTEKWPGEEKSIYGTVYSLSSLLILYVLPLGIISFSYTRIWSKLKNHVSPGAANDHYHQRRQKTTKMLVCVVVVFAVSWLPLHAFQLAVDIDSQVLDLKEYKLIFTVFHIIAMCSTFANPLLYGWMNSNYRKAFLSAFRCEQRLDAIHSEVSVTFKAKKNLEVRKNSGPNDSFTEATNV
# [13] = molecular target: T1, Neuropeptide Y receptor type 4; experiment: Binding affinity to human Y4R expressed in CHO cells co-expressing Gqi5-mtAEQ assessed as Kon preincubated for 20 mins under DPBS condition; type: cell-based; details: filed as agonist, tested as the 3H-labelled form
# [14] = molecular target: T1, Neuropeptide Y receptor type 4; experiment: Agonist activity at human Y4R expressed in HEK293T cells incubated for 60 mins by cAMP CAMYEN assay relative to control; type: functional, cell-based; details: filed as agonist
# [15] = molecular target: T1, Neuropeptide Y receptor type 4; experiment: Binding affinity to human Y4R expressed in CHO cells co-expressing Gqi5-mtAEQ assessed as observed association rate constant under sodium free buffer condition; type: cell-based; details: filed as agonist, tested as the 3H-labelled form
# [16] = molecular target: T1, Neuropeptide Y receptor type 4; experiment: Agonist activity at human Y4R expressed in CHO cells co-expressing Gqi5-mtAEQ by calcium2+ aequorin assay; type: functional, cell-based
# [17] = molecular target: T3, Neuropeptide Y receptor type 5 (Homo sapiens, UniProt Q15761); experiment: Displacement of [3H]propionyl-pNPY from human Y5R expressed in HEC-1B cells; type: cell-based, HEC-1B cell line
# T3 sequence (Q15761 whole entry): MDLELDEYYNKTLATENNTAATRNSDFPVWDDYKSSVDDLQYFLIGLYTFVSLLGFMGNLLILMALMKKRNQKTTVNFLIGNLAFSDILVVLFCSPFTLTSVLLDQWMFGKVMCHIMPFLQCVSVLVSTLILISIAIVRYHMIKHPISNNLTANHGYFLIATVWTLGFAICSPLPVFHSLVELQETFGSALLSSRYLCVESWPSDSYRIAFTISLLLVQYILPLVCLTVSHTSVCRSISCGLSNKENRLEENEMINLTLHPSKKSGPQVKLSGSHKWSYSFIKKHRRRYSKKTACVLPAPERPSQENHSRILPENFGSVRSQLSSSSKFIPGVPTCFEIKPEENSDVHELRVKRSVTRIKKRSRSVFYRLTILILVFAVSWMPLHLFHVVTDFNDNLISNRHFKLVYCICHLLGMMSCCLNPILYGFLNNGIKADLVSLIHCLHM
# Homo sapiens [18] = species on record: Homo sapiens; experiment: Selectivity ratio of pKi for human Y2R to pKi for human Y4R
# [19] = molecular target: T1, Neuropeptide Y receptor type 4; experiment: Displacement of [3H]UR-KK200 from human Y4R expressed in CHO cells co-expressing Gqi5-mtAEQ; type: cell-based
# [20] = molecular target: T1, Neuropeptide Y receptor type 4; experiment: Binding affinity to human Y4R expressed in CHO cells co-expressing Gqi5-mtAEQ assessed as Kon preincubated for 2 hrs under DPBS condition; type: cell-based; details: filed as agonist, tested as the 3H-labelled form
# [21] = molecular target: T1, Neuropeptide Y receptor type 4; experiment: Binding affinity to human Y4R expressed in CHO cells co-expressing Gqi5-mtAEQ assessed as Koff preincubated for 20 mins under DPBS condition; type: cell-based; details: filed as agonist, tested as the 3H-labelled form
# [22] = molecular target: T1, Neuropeptide Y receptor type 4; experiment: Agonist activity at human Y4R expressed in HEK293T cells by miniGsi assay; type: functional, cell-based
# [23] = molecular target: T1, Neuropeptide Y receptor type 4; experiment: Binding affinity to human Y4R expressed in CHO cells co-expressing Gqi5-mtAEQ assessed as Koff under sodium free buffer condition; type: cell-based; details: filed as agonist, tested as the 3H-labelled form
# [24] = molecular target: T4, Neuropeptide Y receptor type 1 (Homo sapiens, UniProt P25929); experiment: Displacement of [3H]UR-MK299 from human Y1R expressed in SK-N-MC cells; type: cell-based
# T4 sequence (P25929 whole entry): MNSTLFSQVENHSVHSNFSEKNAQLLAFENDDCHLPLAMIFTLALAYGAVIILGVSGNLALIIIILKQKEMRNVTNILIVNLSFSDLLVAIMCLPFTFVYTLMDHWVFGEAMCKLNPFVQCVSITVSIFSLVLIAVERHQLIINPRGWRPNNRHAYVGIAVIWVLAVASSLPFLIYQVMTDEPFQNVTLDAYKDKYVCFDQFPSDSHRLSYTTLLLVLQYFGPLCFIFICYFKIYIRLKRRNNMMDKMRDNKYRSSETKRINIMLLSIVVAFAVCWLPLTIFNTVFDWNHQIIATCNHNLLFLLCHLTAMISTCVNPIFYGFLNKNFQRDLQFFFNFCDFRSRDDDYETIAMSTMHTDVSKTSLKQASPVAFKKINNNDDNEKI
# [25] = molecular target: T1, Neuropeptide Y receptor type 4; experiment: Binding affinity to human Y4R expressed in CHO cells co-expressing Gqi5-mtAEQ assessed as Koff preincubated for 2 hrs under DPBS condition; type: cell-based; details: filed as agonist, tested as the 3H-labelled form
# [26] = molecular target: T1, Neuropeptide Y receptor type 4; experiment: Agonist activity at human Y4R expressed in HEK293T cells incubated for 60 mins by cAMP CAMYEN assay; type: functional, cell-based
# [27] = molecular target: T1, Neuropeptide Y receptor type 4; experiment: Agonist activity at human Y4R expressed in HEK293T cells by miniGsi assay relative to control; type: functional, cell-based; details: filed as agonist
# [28] = molecular target: T1, Neuropeptide Y receptor type 4; experiment: Binding affinity to human Y4R expressed in CHO cells co-expressing Gqi5-mtAEQ at 4 degreeC; type: cell-based
# [29] = molecular target: T1, Neuropeptide Y receptor type 4; experiment: Binding affinity to human Y4R expressed in CHO cells co-expressing Gqi5-mtAEQ assessed as dissociation constant preincubated for 2 hrs under DPBS condition; type: cell-based
# [30] = molecular target: T1, Neuropeptide Y receptor type 4; experiment: Binding affinity to human Y4R expressed in CHO cells co-expressing Gqi5-mtAEQ assessed as dissociation constant under sodium free buffer condition; type: cell-based
# [31] = molecular target: T1, Neuropeptide Y receptor type 4; experiment: Binding affinity to human Y4R expressed in CHO cells co-expressing Gqi5-mtAEQ under DPBS condition; type: cell-based
# [32] = molecular target: T1, Neuropeptide Y receptor type 4; experiment: Binding affinity to human Y4R expressed in CHO cells co-expressing Gqi5-mtAEQ assessed as dissociation constant preincubated for 20 mins under DPBS condition; type: cell-based
# [33] = molecular target: T1, Neuropeptide Y receptor type 4; experiment: Binding affinity to human Y4R expressed in CHO cells co-expressing Gqi5-mtAEQ under sodium free buffer condition; type: cell-based
# [34] = molecular target: T1, Neuropeptide Y receptor type 4; experiment: Binding affinity to human Y4R under 137 mM sodium condition
# T1 sequence (P50391 whole entry): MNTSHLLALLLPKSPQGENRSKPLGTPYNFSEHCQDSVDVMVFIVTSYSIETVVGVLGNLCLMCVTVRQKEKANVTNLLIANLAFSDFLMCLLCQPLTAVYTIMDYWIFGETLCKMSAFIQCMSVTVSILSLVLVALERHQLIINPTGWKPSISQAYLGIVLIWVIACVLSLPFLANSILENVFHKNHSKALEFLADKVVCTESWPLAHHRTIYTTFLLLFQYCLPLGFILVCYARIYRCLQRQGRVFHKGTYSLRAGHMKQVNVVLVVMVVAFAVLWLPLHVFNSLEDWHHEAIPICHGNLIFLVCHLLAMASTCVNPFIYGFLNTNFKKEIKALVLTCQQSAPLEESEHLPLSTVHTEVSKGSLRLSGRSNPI
smiles,measurement,setting,value
[3H]CC([3H])C(=O)N[C@H](CCCC[C@@H](N)C(=O)N[C@@H](Cc1ccc(O)cc1)C(=O)N[C@@H](CCCNC(=N)N)C(=O)N[C@@H](CC(C)C)C(=O)N[C@@H](CCCNC(=N)N)C(=O)N[C@@H](Cc1ccc(O)cc1)C(N)=O)C(=O)N[C@@H](Cc1ccc(O)cc1)C(=O)N[C@@H](CCCNC(=N)N)C(=O)N[C@@H](CC(C)C)C(=O)N[C@@H](CCCNC(=N)N)C(=O)N[C@@H](Cc1ccc(O)cc1)C(N)=O (stereo partly drawn),Kd,[1],9.8 nM
same,Kd,[2],0.67 nM
same,Ki,[3]; read-out: Ki,0.39 nM
same,Ki,[4]; read-out: Ki,11 nM
same,Ki,[4]; read-out: pKi (converted),10.2 nM
same,Ki,[5],0.87 nM
CCC(=O)NCCCC(=O)N[C@@H]1CC(=O)N[C@@H](CCCNC(=N)N)C(=O)N[C@@H](Cc2ccc(O)cc2)C(=O)N[C@H](C(=O)N[C@@H](CC(C)C)C(=O)N[C@@H](CCCNC(=N)N)C(=O)N[C@@H](Cc2ccc(O)cc2)C(N)=O)CCCN/C(N)=N/C(=O)NCCCCNC1=O.O=C(O)C(F)(F)F.O=C(O)C(F)(F)F.O=C(O)C(F)(F)F,K,[6],6.83e+07 M⁻¹ s⁻¹
same,Emax,[7],65%
same,Stability,[8],Stable
same,Ratio pKi,Homo sapiens [9],> 27000
same,Ratio pKi,Homo sapiens [9]; tested as the 3H-labelled form,> 27000
same,Ratio pKi,Homo sapiens [10],> 27000
same,Ratio pKi,Homo sapiens [10]; tested as the 3H-labelled form,> 27000
same,K,[11],0.54 min⁻¹
same,Ki,[12]; read-out: Ki,> 3000 nM
same,Ki,[12]; read-out: pKi (converted),> 3160 nM
same,K,[13],1.4e+08 M⁻¹ s⁻¹
same,Emax,[14],83%
same,K,[15],0.071 min⁻¹
same,EC50,[16]; read-out: EC50,5.4 nM
same,EC50,[16]; read-out: pEC50 (converted),5.13 nM
same,Ki,"[17]; hec-1b cell line, read-out: Ki",> 1000 nM
same,Ki,[17]; read-out: pKi (converted),> 1000 nM
same,Ratio pKi,Homo sapiens [18],> 27000
same,Ratio pKi,Homo sapiens [18]; tested as the 3H-labelled form,> 27000
same,Ki,[19]; read-out: Ki,0.036 nM
same,Ki,[19]; read-out: pKi (converted),0.0316 nM
same,K,[20],1.17e+07 M⁻¹ s⁻¹
same,K,[21],0.12 min⁻¹
same,EC50,[22],5.1 nM
same,K,[23],0.009 min⁻¹
same,Ki,[24]; read-out: pKi (converted),> 1000 nM
same,Ki,"[24]; sk-n-mc, read-out: Ki",> 1000 nM
same,K,[25],0.059 min⁻¹
same,EC50,[26]; read-out: EC50,0.17 nM
same,EC50,[26]; read-out: pEC50 (converted),0.126 nM
same,Emax,[27],60%
same,Ki,[3]; read-out: Ki,0.01 nM
same,Ki,[3]; read-out: pKi (converted),0.00891 nM
same,Ki,[4]; read-out: Ki,0.088 nM
same,Ki,[4]; read-out: pKi (converted),0.0832 nM
[3H]CC([3H])C(=O)NCCCC(=O)N[C@@H]1CC(=O)N[C@@H](CCCNC(=N)N)C(=O)N[C@@H](Cc2ccc(O)cc2)C(=O)N[C@H](C(=O)N[C@@H](CC(C)C)C(=O)N[C@@H](CCCNC(=N)N)C(=O)N[C@@H](Cc2ccc(O)cc2)C(N)=O)CCCN/C(N)=N/C(=O)NCCCCNC1=O (stereo partly drawn),Kd,[28],0.86 nM
same,Kd,[29],0.09 nM
same,Kd,[30],0.002 nM
same,Kd,[31],0.11 nM
same,Kd,[32],0.014 nM
same,Kd,[33],0.012 nM
same,Kd,[34],0.11 nM
